Data reported in ChEMBL document CHEMBL1909046, “DrugMatrix in vitro pharmacology data”.

Experiments:
[1] = target: Beta-1 adrenergic receptor (Homo sapiens, UniProt P08588); assay: DRUGMATRIX: Adrenergic beta1 radioligand binding (ligand: [125I] Cyanopindolol); type: cell membranes, CHO-K1, Membrane; settings: cho-k1; Not Active = under 50% inhibition at 10 µM
[2] = target: 5-hydroxytryptamine receptor 2B (Homo sapiens, UniProt P41595); type: cell membranes, CHO-K1, Membrane; settings: cho-k1; further: in other assays of this panel Not Active means under 50% inhibition at 10 µM
Chain of 5-hydroxytryptamine receptor 2B (P41595 whole entry): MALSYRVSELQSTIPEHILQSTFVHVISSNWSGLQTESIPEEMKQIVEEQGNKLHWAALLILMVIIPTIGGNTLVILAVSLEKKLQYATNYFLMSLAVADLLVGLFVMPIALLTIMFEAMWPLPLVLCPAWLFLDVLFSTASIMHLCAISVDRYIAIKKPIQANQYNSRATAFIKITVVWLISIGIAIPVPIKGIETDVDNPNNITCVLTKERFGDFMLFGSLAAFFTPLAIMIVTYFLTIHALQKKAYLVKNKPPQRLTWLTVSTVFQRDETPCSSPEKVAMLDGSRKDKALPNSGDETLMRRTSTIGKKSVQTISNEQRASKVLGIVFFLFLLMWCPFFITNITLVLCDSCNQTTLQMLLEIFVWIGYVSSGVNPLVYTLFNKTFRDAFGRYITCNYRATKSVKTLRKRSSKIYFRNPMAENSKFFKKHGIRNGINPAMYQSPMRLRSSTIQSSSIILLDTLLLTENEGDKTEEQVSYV

[3] = target: 5-hydroxytryptamine receptor 4 (Cavia porcellus, UniProt O70528); type: cell membranes, Dunkin-Hartley, Striatum, Membrane; further: in other assays of this panel Not Active means under 50% inhibition at 10 µM
Chain of 5-hydroxytryptamine receptor 4 (O70528 whole entry): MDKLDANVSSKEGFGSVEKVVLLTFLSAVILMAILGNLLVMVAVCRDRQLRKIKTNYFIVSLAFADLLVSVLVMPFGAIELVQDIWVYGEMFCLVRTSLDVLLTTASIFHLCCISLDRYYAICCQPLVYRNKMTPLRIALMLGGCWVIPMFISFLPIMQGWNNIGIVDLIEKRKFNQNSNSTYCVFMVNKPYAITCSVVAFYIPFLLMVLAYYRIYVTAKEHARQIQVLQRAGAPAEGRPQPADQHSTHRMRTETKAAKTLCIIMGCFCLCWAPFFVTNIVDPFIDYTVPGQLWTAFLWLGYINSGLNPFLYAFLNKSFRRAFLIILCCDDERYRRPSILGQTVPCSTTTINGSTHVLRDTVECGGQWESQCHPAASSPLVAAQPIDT

[4] = target: C-C chemokine receptor type 2 (Homo sapiens, UniProt P41597); type: cell membranes, Membrane; settings: cho-k1; further: in other assays of this panel Not Active means under 50% inhibition at 10 µM
Chain of C-C chemokine receptor type 2 (P41597 whole entry): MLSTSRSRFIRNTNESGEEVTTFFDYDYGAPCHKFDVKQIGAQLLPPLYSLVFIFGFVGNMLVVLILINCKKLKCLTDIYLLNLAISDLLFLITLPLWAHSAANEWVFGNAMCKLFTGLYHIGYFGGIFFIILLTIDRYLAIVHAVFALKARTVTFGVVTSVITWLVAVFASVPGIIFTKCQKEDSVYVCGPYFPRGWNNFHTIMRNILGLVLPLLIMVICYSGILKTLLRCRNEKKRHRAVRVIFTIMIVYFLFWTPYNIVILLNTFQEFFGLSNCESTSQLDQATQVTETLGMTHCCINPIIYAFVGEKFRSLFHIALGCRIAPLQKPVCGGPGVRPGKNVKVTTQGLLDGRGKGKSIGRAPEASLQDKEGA

[5] = target: T1, Polyunsaturated fatty acid lipoxygenase ALOX15 (Oryctolagus cuniculus, UniProt P12530); assay: biochemical; type: tissue-based, Reticulocytes; settings: reticulocytes;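 further: inhibition of 15-lipoxygenase enzyme activity measured with linoleic acid as the substrate; in other assays of this panel Not Active means under 50% inhibition at 10 µM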
T1 sequence (P12530 whole entry): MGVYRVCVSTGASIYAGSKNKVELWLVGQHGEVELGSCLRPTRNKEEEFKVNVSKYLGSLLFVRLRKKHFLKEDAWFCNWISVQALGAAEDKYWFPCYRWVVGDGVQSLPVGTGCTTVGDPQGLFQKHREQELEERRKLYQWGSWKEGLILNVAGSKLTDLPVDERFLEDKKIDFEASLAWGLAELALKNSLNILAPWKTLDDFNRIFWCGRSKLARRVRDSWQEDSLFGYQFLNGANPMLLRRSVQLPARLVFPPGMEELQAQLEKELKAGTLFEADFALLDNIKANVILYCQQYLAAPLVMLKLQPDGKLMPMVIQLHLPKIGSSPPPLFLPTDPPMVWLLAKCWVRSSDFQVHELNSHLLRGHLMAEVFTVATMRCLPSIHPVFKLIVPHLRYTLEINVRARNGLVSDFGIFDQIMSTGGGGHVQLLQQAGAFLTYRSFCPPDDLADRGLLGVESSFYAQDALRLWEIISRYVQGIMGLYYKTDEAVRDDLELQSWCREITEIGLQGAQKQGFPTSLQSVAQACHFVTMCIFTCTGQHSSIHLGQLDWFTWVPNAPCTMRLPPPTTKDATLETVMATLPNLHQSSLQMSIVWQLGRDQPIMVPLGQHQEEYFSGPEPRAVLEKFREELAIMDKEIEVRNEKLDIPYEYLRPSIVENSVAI

Estrogen receptor beta = Estrogen receptor beta (Homo sapiens, UniProt Q92731); settings: sf9; further: in other assays of this panel Not Active means under 50% inhibition at 10 µM
Chain of Estrogen receptor beta (Q92731 whole entry): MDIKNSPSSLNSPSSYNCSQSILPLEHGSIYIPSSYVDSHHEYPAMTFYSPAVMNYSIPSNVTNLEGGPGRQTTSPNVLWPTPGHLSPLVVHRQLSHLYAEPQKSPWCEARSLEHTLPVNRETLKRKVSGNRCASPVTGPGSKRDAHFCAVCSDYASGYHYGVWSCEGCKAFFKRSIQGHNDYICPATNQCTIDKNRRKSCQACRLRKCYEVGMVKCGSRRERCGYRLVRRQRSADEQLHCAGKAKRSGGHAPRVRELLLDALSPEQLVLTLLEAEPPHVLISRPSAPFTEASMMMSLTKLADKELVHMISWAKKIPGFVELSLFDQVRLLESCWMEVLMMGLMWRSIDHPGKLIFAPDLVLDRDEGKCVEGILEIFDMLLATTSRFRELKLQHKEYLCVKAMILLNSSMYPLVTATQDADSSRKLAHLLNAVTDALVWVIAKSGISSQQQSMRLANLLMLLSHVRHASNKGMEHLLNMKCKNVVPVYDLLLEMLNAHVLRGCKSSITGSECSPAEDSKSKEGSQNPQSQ

Chain of Beta-1 adrenergic receptor (P08588 whole entry): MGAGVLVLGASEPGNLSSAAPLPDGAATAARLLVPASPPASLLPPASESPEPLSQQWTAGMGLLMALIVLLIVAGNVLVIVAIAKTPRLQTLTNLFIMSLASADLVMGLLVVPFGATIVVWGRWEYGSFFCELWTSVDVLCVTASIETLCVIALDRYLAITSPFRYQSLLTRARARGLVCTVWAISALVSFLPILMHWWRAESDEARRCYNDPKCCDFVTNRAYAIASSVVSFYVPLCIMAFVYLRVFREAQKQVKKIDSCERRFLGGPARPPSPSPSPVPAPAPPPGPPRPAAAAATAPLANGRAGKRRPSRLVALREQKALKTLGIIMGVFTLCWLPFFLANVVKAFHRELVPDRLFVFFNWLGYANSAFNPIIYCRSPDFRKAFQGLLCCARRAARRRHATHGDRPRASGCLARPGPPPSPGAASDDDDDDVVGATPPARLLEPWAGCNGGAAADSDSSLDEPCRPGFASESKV

GRAMICIDIN
Not Active: IC50 [1] | Ki [1] | IC50 [2] | Ki [2] | IC50 [3] | Ki [3] | IC50 [4] | Ki [4] | IC50 [5] | Ki [5] | IC50 (Estrogen receptor beta) | Ki (Estrogen receptor beta)

NYSTATIN
Not Active: IC50 [1] | Ki [1] | IC50 [2] | Ki [2] | IC50 [3] | Ki [3] | IC50 [4] | Ki [4] | IC50 [5] | Ki [5] | IC50 (Estrogen receptor beta) | Ki (Estrogen receptor beta)
